Assay [1] deals with human pancreatic cancer cell line MIA PaCa-2 (KRAS mutation). The assay is described as follows: Antitumor effect on MIA PaCa-2 tumor subcutaneously implanted to CB17 SCID mouse. Type of assay: in vivo. The method, then:
MIA PaCa-2 cell line carries KRAS mutation.
A human pancreatic cancer line, MIA PaCa-2 (available from American Type Culture Collection), suspended in a mixture of PBS and Matrigel was subcutaneously implanted to male CB17 SCID mice at 7-10 weeks of age (Charles River UK) at 5×10^6 cells/100 μl/mouse. Tumors were measured with a pair of digital calipers, and tumor volumes (TV) were calculated by applying the formula for ellipsoid. Mice with TV of 146 to 360 mm^3 were assigned to study groups such that average TV was equal among groups.
Oral administration of Compound 1 or its vehicle, and Compound 9 or its vehicle was started on Day 1. Compound 1 was dissolved in an acidified solution of 0.5% (w/v) hydroxypropyl methylcellulose (Sigma) and administered via oral gavage at 6 or 12 mg/kg/day. Compound 9 was suspended in 20% (v/v) PEG200 (Sigma) and 0.5% (w/v) methylcellulose (Sigma) and administered via oral gavage at 50 mg/kg/day. All treatments were given once a day for 21 consecutive days, except for the combination group receiving 12 mg/kg of Compound 1 and 50 mg/kg of Compound 9, in which the animals were treated for 5 days per week for 3 weeks.
Antitumor effects were evaluated by comparing the median relative tumor volumes (RTV) between control- and treated groups. RTV was calculated by dividing TV on any test day by TV on Day 1, expressed as a percentage. T/C (%), as a measure of anti-tumor activity, was calculated by dividing median RTV values of each compound-administered group by median RTV of the control group receiving both vehicles.

In assay [2] the test system is 97 cell lines harboring driver mutations in KRAS. The assay is described as follows: In vitro cell line screening, 3D cultures (CellTiter-Glo 3D), KRAS panel. Type of assay: cell-based, human. Conditions: sensitive = maximum inhibition greater than 50% relative to DMSO, max 3 μM Compound 1, 1 μM Compound 9, 120-hour incubation. As to the method:
The effect of Compound 1 in combination with an ERK inhibitor, Compound 9, on 97 cell lines harboring driver mutations in KRAS (G12A, G12C, G12F, G12R, G12S, G12V, G13C, G13D, A59G, Q61H, Q61K, Q61L or A146T) was assessed using the following technique. Cells from human cancer cells lines (from commercial sources such as ATCC or ECCAC) were grown as 3D cultures by seeding cells into round-bottom ultra-low attachment 96-well tissue culture plates (Corning) followed by centrifugation. Cells were allowed to recover for 16-24 hours prior to compound treatment. Compounds or dimethyl sulfoxide (DMSO) were added at various combinations of compound concentrations in a final DMSO concentration of up to 0.5% (v/v). Following a total of 120-hour incubation, CellTiter-Glo 3D Reagent(registered trademark) (Promega) was added. Plates were incubated for 10 minutes with gentle shaking at room temperature to lyse the cells, then incubated for further 40 minutes at room temperature to stabilize luminescence signal. After mixing, the mixture was transferred to a fresh plate and luminescence was determined on EnVision plate reader (Perkin Elmer).
(§1) For both 3D and 2D assays, the combination was tested as matrix of various concentrations of Compound 1 and Compound 9. The maximum concentrations of Compound 1 and Compound 9 used were 3 μM and 1 μM, respectively. Signals were normalized to that of the average of the DMSO control wells. […] For each cell line, the maximum % inhibition values were obtained for Compound 1 alone, Compound 9 alone and the combination of both compounds. The degree of drug interaction (i.e. synergy, additivity or antagonism) was quantified for each cell line by the Bliss independence model using the Synergyfinder R package (Ref: He L. et al. (2018) Methods for High-throughput Drug Combination Screening and Synergy Scoring. In: von Stechow L. (eds) Cancer Systems Biology. Methods in Molecular Biology, vol 1711. Humana Press, New York, N.Y.). For each cell line, a single score metric, the sum of synergy and antagonism across screened drug concentrations (SUM_SYN_ANT) (Ref: Di Veroli G. Y. et al (2016) Bioinformatics 32(18):2866-2868), was calculated. Synergy was defined as a score of 21 or above.

The test system of assay [3] is 394 cell lines that do not depend on KRAS. The assay is described as follows: In vitro cell line screening, 2D monolayers (CellTiter-Glo), KRAS-independent panel. It is filed as cell-based, human. The settings on record: Non-KRAS panel, sensitive = maximum inhibition greater than 50% relative to DMSO, max 3 μM Compound 1, 1 μM Compound 9, 120-hour incubation. As to the method:
(§2) Cells from human cancer cells lines (from commercial sources such as ATCC or ECCAC) were grown as 2D monolayers by seeding onto flat-bottom 96-well tissue culture plates (Corning). Cells were allowed to recover for 16-24 hours prior to compound treatment. Compounds or dimethyl sulfoxide (DMSO) were added at various combinations of compound concentrations in a final DMSO concentration of up to 0.5% (v/v). Following a total of 120-hour incubation, CellTiter-Glo reagent(registered trademark) (Promega) was added. Plates were incubated for 10 minutes with gentle shaking at room temperature to lyse the cells, then incubated for further 10 minutes at room temperature to stabilize luminescence signal. After mixing, the mixture was transferred to a fresh plate, and luminescence was determined on EnVision plate reader (Perkin Elmer).
as §1

Assay [4] deals with 491 cell lines. The assay is described as follows: In vitro cell line screening, both panels overall. It is filed as cell-based, human. Conditions: Total panel, sensitive = maximum inhibition greater than 50% relative to DMSO, max 3 μM Compound 1, 1 μM Compound 9, 120-hour incubation. As to the method: as §2, with “as 3D cultures” for “as 2D monolayers”, “seeding cells into round-bottom ultra-low attachment” for “seeding onto flat-bottom”, “plates (Corning) followed by centrifugation.” for “plates (Corning).”, “CellTiter-Glo 3D Reagent(registered” for “CellTiter-Glo reagent(registered”, “further 40” for “further 10”, “fresh plate” for “fresh plate,”
as §2, §1

For assay [5], the target named is T1, SHP2 (Homo sapiens, UniProt Q06124).
T1 sequence (Q06124 1-593): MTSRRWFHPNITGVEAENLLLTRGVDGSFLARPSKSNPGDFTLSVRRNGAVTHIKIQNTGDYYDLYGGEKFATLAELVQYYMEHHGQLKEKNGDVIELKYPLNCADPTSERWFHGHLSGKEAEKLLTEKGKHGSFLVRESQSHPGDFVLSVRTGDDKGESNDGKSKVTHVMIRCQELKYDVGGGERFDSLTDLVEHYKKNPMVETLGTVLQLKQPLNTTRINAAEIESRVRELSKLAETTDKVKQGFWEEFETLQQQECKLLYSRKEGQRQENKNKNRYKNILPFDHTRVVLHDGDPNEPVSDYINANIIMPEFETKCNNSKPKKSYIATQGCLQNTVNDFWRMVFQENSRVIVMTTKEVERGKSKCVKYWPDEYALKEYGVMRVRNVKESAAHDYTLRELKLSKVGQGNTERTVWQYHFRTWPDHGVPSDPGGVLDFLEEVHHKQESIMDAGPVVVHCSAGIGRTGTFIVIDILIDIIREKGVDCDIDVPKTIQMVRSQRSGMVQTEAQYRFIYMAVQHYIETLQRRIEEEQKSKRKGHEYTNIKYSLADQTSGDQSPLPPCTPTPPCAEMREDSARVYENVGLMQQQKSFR
The assay can be described thus: SHP2 biochemical assay (DiFMUP conversion). The settings on record: 10 pM SHP2, 0.25 μM pIRS1 peptide, 50 μM DiFMUP. As to the method: (1) SHP2 Biochemical Assay SHP2 Activity was Monitored by Measuring the Conversion of the Surrogate Substrate 6,8-Difluoromethylumbelliferyl Phosphate (DiEMUP) to the Fluorescent Product, 6,8-Difluoromethylumbelliferone (DiFMU).
SHP2 was pre-incubated with test compounds and the activating peptide pIRS1 (H2N-LN(pY) IDLDLV-(PEG) 8-LST(pY)ASINFQK-amide) for 30 min, prior to addition of the 6,8-difluoromethylumbelliferyl phosphate (DiEMUP), (Thermo Fisher D6567). Final assay concentrations were 10 pM SHP2, 0.25 μM pIRS1 peptide, 50 μM DiFMUP, 25 mM Bis-Tris propane, pH 7.0, 150 mM NaCl, 0.05% (v/v) Tween-20, 0.5 mM TCEP and 5% (v/v) DMSO. Rates of reaction were then measured over 30 min by monitoring fluorescence on a BMG Pherastar reader at excitation 360 nm/emission 450 nm. IC50 values were calculated in singlicate from the normalized dose-response plots using four parameter logistic curve fit. The Experiment for each compound was carried out in one time or multiple times, and the IC50 values were shown as a single value (for a compound measured in a single experiment) or an average value (for a compound measured in multiple experiments).

The subject of assay [6] is pERK levels in HCC827 cells. The assay is described as follows: Cellular pERK inhibition assay (In-Cell Western). It is filed as cell-based. The settings on record: Homo sapiens, relative IC50. As to the method:
pERK levels were determined using the In-Cell Western assay. HCC827 cells (ATCC, Manassas, USA) were seeded into 384-well plates at a density of 1×10^4 cells/well in RPMI1640 medium supplemented with 10% FBS and incubated 24 h. Compounds were diluted first in DMSO and then into serum-free medium, before being added to cells in quadruplicate to give a final concentration of 0.2% DMSO. Plates were incubated at 37° C. for the indicated time in a humidified atmosphere of 5% CO2 in air.
Following compound treatment, cells were fixed with formalin neutral buffer solution for 20 minutes at room temperature. Plates were washed three times with 0.1% Triton-X in PBS and cells were blocked for 1 hour with Odyssey blocking buffer (LI-COR, #927-40000). […] Levels of pERK were then expressed as percent of control, using DMSO treated samples as control. The relative IC50 values were calculated in quadruplicate from the normalized dose-response plots using four parameter logistic curve fit. The Experiment for each compound was carried out in one time or multiple times, and the IC50 values were shown as a single value (for a compound measured in a single experiment) or an average value (for a compound measured in multiple experiments).

The values below come from patent US20230146795A1, “ENHANCEMENT OF ANTI-TUMOR ACTIVITY OF SHP2 INHIBITOR PYRIMIDINONE IN COMBINATION WITH NOVEL CANCER MEDICINES IN CANCERS” (TAIHO PHARMACEUTICAL CO., LTD., priority 2020, published 2023).

As for `COc1cc(F)cc([C@@H](CO)NC(=O)[C@@H](C)N2Cc3ccc(-c4nc(NC5CCOCC5)ncc4Cl)cc3C2=O)c1` [Compound 9, (2R)-2-(6-{5-chloro-2-[(oxan-4-yl)amino]pyrimidin-4-yl}-1-oxo-2,3-dihydro-1H-isoindol-2-yl)-N-[(1S)-1-(3-fluoro-5-methoxyphenyl)-2-hydroxyethyl]propanamide], the “partial regression (tumor shrinkage of 50% or above), mice” value in assay [1] (Compound 9 alone 50 mg/kg/day) is reported as 1 out of 8. The T/C in assay [1] (Compound 9 alone 50 mg/kg/day oral, once a day, Day 18) was 29%. Moreover, in assay [1] (Compound 9 alone 50 mg/kg/day, during the treatment period), the tumor response entry is listed as “tumor stasis”. For the same compound, the “Number of cell lines sensitive” value came to 80 in assay [2], 204 in assay [3] and 284 in assay [4]. Further, the “Number of cell lines sensitive (% of total)” value is 82.5% in assay [2], 51.8% in assay [3] and 57.8% in assay [4].
Take `CCn1cc2c(Cl)c(-c3c[nH]c4nc(N5C[C@H]6CC[C@@H]5[C@@H]6N)n(C)c(=O)c34)ccc2n1` [Compound 3, 2-((1R,4R,7R)-7-amino-2-azabicyclo[2.2.1]heptan-2-yl)-5-(4-chloro-2-ethyl-2H-indazol-5-yl)-3-methyl-3,7-dihydro-4H-pyrrolo[2,3-d]pyrimidin-4-one]: the IC50 in assay [5] was 4 nM; in assay [6], 35 nM.
`Cn1cc2c(Cl)c(-c3c[nH]c4nc(N5C[C@H]6CC[C@@H]5[C@@H]6N)n(C)c(=O)c34)ccc2n1` [Compound 4, 2-((1R,4R,7R)-7-amino-2-azabicyclo[2.2.1]heptan-2-yl)-5-(4-chloro-2-methyl-2H-indazol-5-yl)-3-methyl-3,7-dihydro-4H-pyrrolo[2,3-d]pyrimidin-4-one] displayed an IC50 in assay [5] of 3.7 nM.
Still for that read-out and setting: for `Cn1nc2ccc(-c3n[nH]c4nc(N5C[C@H]6CC[C@@H]5[C@@H]6N)n(C)c(=O)c34)c(Cl)c2c1Cl` [Compound 2, 6-((1R,4R,7R)-7-amino-2-azabicyclo[2.2.1]heptan-2-yl)-3-(3,4-dichloro-2-methyl-2H-indazol-5-yl)-5-methyl-1,5-dihydro-4H-pyrazolo[3,4-d]pyrimidin-4-one] the value was 2.6 nM.
